Reference: US20220306659A1, “COMPOUND INHIBITING AND INDUCING DEGRADATION OF EGFR AND ALK” (BEIJING TIDE PHARMACEUTICAL CO., LTD., priority 2019, published 2022)

Key:
[1] = biological target: Ba/F3(EGFR^Del19/T790M/C797S) cells (Homo sapiens, UniProt P00533, DEL746-750/T790M/C797S, cells depend on it); assay: Assay of activity on Ba/F3 cells (CTG, 72 h); format: cell-based; details: read-out: IC50 (nM) Ba/F3 (EGFR^Del19/T790M/C797S)
Procedure: (§1) (2) A compound stock solution was prepared, and then diluted 3× to obtain a compound dilution. 30 nL of the compound dilution was added to a 384-well plate by Echo (Labcyte, Echo550). The cells were incubated in an incubator at 37° C. and 5% CO2 for 72 h.
(§2) The percent inhibition rate (% inhibition) was calculated by the following formula
(§3) LUMcmpd: Luminescence value of assay compound.
(§4) LUMpositive: Average LUM value of positive drug at a concentration of 10 μM.
(§5) LUMvehicle. Average LUM value of negative control group without drug treatment.
(§6) The nonlinear regression curve (dose response-variable slope) between the value of inhibition rate (%) and the logarithm of compound concentration was fitted with graphpad prism 8.0, the effect dose curve of compound was drawn, and the IC50 value was calculated.
(§7) Y=Bottom+(Top−Bottom)/(1+1^((LogIC50−X)*HillSlope))
(§8) X-axis: logarithm of compound concentration; Y axis: inhibition rate ([…]).

[2] = biological target: Ba/F3(EGFR^L858R/T790M/C797S) cells (Homo sapiens, UniProt P00533, T790M/C797S/L858R, cells depend on it); assay: Assay of activity on Ba/F3 cells (CTG, 72 h); format: cell-based; details: read-out: IC50 (nM) Ba/F3 (EGFR^L858R/T790M/C797S)
Sequence of Ba/F3(EGFR^L858R/T790M/C797S) cells (P00533 whole entry T790M/C797S/L858R): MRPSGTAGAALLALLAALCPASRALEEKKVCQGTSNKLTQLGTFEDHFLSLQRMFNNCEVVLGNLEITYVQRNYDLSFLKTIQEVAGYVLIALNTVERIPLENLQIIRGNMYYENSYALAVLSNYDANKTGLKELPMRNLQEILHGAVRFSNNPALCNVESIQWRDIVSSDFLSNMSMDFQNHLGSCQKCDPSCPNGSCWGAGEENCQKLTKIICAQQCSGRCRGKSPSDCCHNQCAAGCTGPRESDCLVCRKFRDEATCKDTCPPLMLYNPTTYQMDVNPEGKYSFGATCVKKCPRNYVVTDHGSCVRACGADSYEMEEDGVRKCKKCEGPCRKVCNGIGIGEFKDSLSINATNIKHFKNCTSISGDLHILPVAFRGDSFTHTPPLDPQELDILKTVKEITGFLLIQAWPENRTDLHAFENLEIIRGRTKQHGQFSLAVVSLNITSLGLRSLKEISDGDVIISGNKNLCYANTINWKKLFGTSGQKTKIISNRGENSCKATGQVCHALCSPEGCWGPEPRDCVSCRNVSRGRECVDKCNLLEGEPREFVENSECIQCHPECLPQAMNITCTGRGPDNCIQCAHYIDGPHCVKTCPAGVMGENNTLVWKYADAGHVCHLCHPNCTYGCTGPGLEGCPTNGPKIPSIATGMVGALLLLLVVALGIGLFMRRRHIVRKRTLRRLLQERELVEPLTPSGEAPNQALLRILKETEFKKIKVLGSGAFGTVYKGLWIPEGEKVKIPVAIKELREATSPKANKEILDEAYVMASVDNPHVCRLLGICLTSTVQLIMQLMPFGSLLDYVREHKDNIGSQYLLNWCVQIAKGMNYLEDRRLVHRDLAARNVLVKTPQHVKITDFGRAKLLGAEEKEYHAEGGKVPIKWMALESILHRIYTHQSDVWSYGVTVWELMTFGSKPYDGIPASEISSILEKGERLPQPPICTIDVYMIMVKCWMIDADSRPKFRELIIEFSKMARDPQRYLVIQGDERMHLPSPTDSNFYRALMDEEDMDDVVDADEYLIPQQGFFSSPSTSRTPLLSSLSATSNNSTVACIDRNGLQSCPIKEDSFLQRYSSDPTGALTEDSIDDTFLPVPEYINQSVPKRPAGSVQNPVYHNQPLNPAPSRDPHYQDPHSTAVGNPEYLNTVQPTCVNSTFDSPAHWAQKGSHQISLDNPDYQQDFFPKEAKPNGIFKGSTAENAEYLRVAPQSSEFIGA
Procedure: as §1, §2, §3, §4, §5, §6, §7, §8

Sequence of Ba/F3(EGFR^Del19/T790M/C797S) cells (P00533 with tags, fused parts or gaps DEL746-750/T790M/C797S): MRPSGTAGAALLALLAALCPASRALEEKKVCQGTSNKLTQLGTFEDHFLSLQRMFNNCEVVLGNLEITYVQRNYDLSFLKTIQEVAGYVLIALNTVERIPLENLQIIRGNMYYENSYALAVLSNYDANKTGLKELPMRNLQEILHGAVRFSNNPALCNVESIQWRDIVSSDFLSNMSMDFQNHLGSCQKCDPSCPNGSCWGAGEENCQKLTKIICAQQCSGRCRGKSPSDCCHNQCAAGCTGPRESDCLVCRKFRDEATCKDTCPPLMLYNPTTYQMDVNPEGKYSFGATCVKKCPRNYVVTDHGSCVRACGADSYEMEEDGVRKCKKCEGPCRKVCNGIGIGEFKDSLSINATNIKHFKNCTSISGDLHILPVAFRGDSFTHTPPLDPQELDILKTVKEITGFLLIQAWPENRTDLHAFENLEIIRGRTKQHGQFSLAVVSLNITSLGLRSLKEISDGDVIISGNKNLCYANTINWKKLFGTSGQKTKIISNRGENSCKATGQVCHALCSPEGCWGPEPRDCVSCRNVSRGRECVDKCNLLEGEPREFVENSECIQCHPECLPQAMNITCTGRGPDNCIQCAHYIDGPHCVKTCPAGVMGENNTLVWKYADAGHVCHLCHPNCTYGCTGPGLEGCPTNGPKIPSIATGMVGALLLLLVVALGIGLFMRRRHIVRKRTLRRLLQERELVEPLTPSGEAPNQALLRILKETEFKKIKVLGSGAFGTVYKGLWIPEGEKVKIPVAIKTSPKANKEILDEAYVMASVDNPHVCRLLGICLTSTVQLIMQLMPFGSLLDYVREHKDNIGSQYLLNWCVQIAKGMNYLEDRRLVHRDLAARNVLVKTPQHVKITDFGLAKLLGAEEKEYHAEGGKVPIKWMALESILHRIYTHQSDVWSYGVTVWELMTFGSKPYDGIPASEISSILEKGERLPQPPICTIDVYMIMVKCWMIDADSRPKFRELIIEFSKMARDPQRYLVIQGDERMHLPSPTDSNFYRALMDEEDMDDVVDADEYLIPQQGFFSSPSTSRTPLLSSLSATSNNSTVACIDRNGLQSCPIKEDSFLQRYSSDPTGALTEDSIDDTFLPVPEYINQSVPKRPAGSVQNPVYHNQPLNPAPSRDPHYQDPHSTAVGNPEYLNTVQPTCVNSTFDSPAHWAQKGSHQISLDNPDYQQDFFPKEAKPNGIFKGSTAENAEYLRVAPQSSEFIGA

| GI50 [1] | GI50 [2] | SMILES |
| --- | --- | --- |
| 1 to 100 nM |  | COc1cc(N2CCC(N3CCN(CCCCC#Cc4cc(C(F)(F)F)cc5c4CN(C4CCC(=O)NC4=O)C5=O)CC3)CC2)ccc1Nc1ncc(Cl)c(Nc2ccccc2P(C)(C)=O)n1 (stereo not shown) [Compound C268, 3-(4-(6-(4-(1-(4-((5-chloro-4-((2-(dimethylphosphoryl)phenyl)amino)pyrimidin-2-yl)amino)-3-methoxyphenyl)piperidin-4-yl)piperazin-1-yl)hex-1-yn-1-yl)-1-oxo-6-(trifluoromethyl)isoindolin-2-yl)piperidine-2,6-dione] |
| 1 to 100 nM |  | COc1cc(N2CCC(N3CCN(CCCC#Cc4cc(C(F)(F)F)cc5c4CN(C4CCC(=O)NC4=O)C5=O)CC3)CC2)ccc1Nc1ncc(Cl)c(Nc2ccccc2P(C)(C)=O)n1 (stereo not shown) [Compound C269, 3-(4-(5-(4-(1-(4-((5-chloro-4-((2-(dimethylphosphoryl)phenyl)amino)pyrimidin-2-yl)amino)-3-methoxyphenyl)piperidin-4-yl)piperazin-1-yl)pent-1-yn-1-yl)-1-oxo-6-(trifluoromethyl)isoindolin-2-yl)piperidine-2,6-dione] |
| 1 to 100 nM |  | COc1cc(N2CCC(N3CCN(CCCCCc4cccc5c4CN(C4CCC(=O)NC4=O)C5=O)CC3)CC2)c(C)cc1Nc1ncc(Br)c(Nc2ccc3nccnc3c2P(C)(C)=O)n1 (stereo not shown) [Compound C285, 3-(4-(5-(4-(1-(4-((5-bromo-4-((5-(dimethylphosphoryl)quinoxalin-6-yl)amino)pyrimidin-2-yl)amino)-5-methoxy-2-methylphenyl)piperidin-4-yl)piperazin-1-yl)pentyl)-1-oxoisoindolin-2-yl)piperidine-2,6-dione] |
| 1 to 100 nM |  | COc1cc(N2CCC(N3CCN(CCCCCCc4cccc5c4CN(C4CCC(=O)NC4=O)C5=O)CC3)CC2)c(C)cc1Nc1ncc(Br)c(Nc2ccc3nccnc3c2P(C)(C)=O)n1 (stereo not shown) [Compound C286, 3-(4-(6-(4-(1-(4-((5-bromo-4-((5-(dimethylphosphoryl)quinoxalin-6-yl)amino)pyrimidin-2-yl)amino)-5-methoxy-2-methylphenyl)piperidin-4-yl)piperazin-1-yl)hexyl)-1-oxoisoindolin-2-yl)piperidine-2,6-dione] |
| 1 to 100 nM |  | COc1cc(N2CCC(N3CCN(CCCCc4cccc5c4CN(C4CCC(=O)NC4=O)C5=O)CC3)CC2)c(C)cc1Nc1ncc(Br)c(Nc2ccc3nccnc3c2P(C)(C)=O)n1 (stereo not shown) [Compound C301, 3-(4-(4-(4-(1-(4-((5-bromo-4-((5-(dimethylphosphoryl)quinoxalin-6-yl)amino)pyrimidin-2-yl)amino)-5-methoxy-2-methylphenyl)piperidin-4-yl)piperazin-1-yl)butyl)-1-oxoisoindolin-2-yl)piperidine-2,6-dione] |
| 1 to 100 nM |  | COc1cc(N2CCC3(CCN(CCCCc4cccc5c4CN(C4CCC(=O)NC4=O)C5=O)CC3)CC2)c(C)cc1Nc1ncc(Br)c(Nc2ccc3nccnc3c2P(C)(C)=O)n1 (stereo not shown) [Compound C302, 3-(4-(4-(9-(4-((5-bromo-4-((5-(dimethylphosphoryl)quinoxalin-6-yl)amino)pyrimidin-2-yl)amino)-5-methoxy-2-methylphenyl)-3,9-diazaspiro[5.5]undecan-3-yl)butyl)-1-oxoisoindolin-2-yl)piperidine-2,6-dione] |

Further lines, the compound ahead of its results:

| SMILES | GI50 [1] | GI50 [2] |
| --- | --- | --- |
| COc1cc(N2CCC(N3CCNCC3)CC2)ccc1Nc1ncc(Cl)c(Nc2ccccc2P(C)(C)=O)n1 [Compound A1-4, (2-((5-Chloro-2-((2-methoxy-4-(4-(piperazin-1-yl)piperidin-1-yl)phenyl)amino)pyrimidin-4-yl)amino)phenyl)dimethyl phosphorus oxide] | > 300 nM | > 300 nM |
| COc1cc(N2CCC(N3CCN(CCCCCCCOC4CN(c5cccc6c5C(=O)N(C5CCC(=O)NC5=O)C6=O)C4)CC3)CC2)ccc1Nc1ncc(Cl)c(Nc2ccccc2P(C)(C)=O)n1 (stereo not shown) [Compound C150, 4-(3-((7-(4-(1-(4-((5-chloro-4-((2-(dimethylphosphoryl)phenyl)amino)pyrimidin-2-yl)amino)-3-methoxyphenyl)piperidin-4-yl)piperazin-1-yl)heptyl)oxy)azetidin-1-yl)-2-(2,6-dioxopiperidin-3-yl)isoindoline-1,3-dione] |  | > 300 nM |
| COc1cc(N2CCC(N3CCN(CCCCCn4cc(-c5cccc6c5CN(C5CCC(=O)NC5=O)C6=O)cn4)CC3)CC2)ccc1Nc1ncc(Cl)c(Nc2ccccc2P(C)(C)=O)n1 (stereo not shown) [Compound C162, 3-(4-(1-(5-(4-(1-(4-((5-chloro-4-((2-(dimethylphosphoryl)phenyl)amino)pyrimidin-2-yl)amino)-3-methoxyphenyl)piperidin-4-yl)piperazin-1-yl)pentyl)-1H-pyrazol-4-yl)-1-oxoisoindolin-2-yl)piperidine-2,6-dione] | > 300 nM | > 300 nM |
| COc1cc(N2CCC(N3CCN(CCCCCC#Cc4c(F)ccc5c4CN(C4CCC(=O)NC4=O)C5=O)CC3)CC2)ccc1Nc1ncc(Cl)c(Nc2ccccc2P(C)(C)=O)n1 (stereo not shown) [Compound C166, 3-(4-(7-(4-(1-(4-((5-chloro-4-((2-(dimethylphosphoryl)phenyl)amino)pyrimidin-2-yl)amino)-3-methoxyphenyl)piperidin-4-yl)piperazin-1-yl)hept-1-yn-1-yl)-5-fluoro-1-oxoisoindolin-2-yl)piperidine-2,6-dione] | 1 to 100 nM | 101 to 200 nM |
| COc1cc(N2CCC3(CCN(CCOCC#Cc4cccc5c4CN(C4CCC(=O)NC4=O)C5=O)CC3)CC2)c(C)cc1Nc1ncc(Br)c(Nc2ccc3nccnc3c2P(C)(C)=O)n1 (stereo not shown) [Compound C174, 3-(4-(3-(2-(9-(4-((5-bromo-4-((5-(dimethylphosphoryl)quinoxalin-6-yl)amino)pyrimidin-2-yl)amino)-5-methoxy-2-methylphenyl)-3,9-diazaspiro[5.5]undecan-3-yl)ethoxy)prop-1-yn-1-yl)-1-oxoisoindolin-2-yl)piperidine-2,6-dione] | 1 to 100 nM | 1 to 100 nM |
| COc1cc(N2CCC(N3CCN(CCCc4ccc(-c5ccc6c(c5)CN(C5CCC(=O)NC5=O)C6=O)cc4)CC3)CC2)ccc1Nc1ncc(Cl)c(Nc2ccccc2P(C)(C)=O)n1 (stereo not shown) [Compound C235, 3-(5-(4-(3-(4-(1-(4-((5-chloro-4-((2-(dimethylphosphoryl)phenyl)amino)pyrimidin-2-yl)amino)-3-methoxyphenyl)piperidin-4-yl)piperazin-1-yl)propyl)phenyl)-1-oxoisoindolin-2-yl)piperidine-2,6-dione] | 1 to 100 nM | 1 to 100 nM |
| COc1cc(N2CCC(N3CCN(CCCCCC#Cc4ccc(F)c5c4CN(C4CCC(=O)NC4=O)C5=O)CC3)CC2)ccc1Nc1ncc(Cl)c(Nc2ccccc2P(C)(C)=O)n1 (stereo not shown) [Compound C243, 3-(4-(7-(4-(1-(4-((5-chloro-4-((2-(dimethylphosphoryl)phenyl)amino)pyrimidin-2-yl)amino)-3-methoxyphenyl)piperidin-4-yl)piperazin-1-yl)hept-1-yn-1-yl)-7-fluoro-1-oxoisoindolin-2-yl)piperidine-2,6-dione] | 1 to 100 nM |  |
| COc1cc(N2CCC(N3CCN(CCCCCCCc4cccc5c4CN(C4CCC(=O)NC4=O)C5=O)CC3)CC2)ccc1Nc1ncc(Cl)c(Nc2ccccc2P(C)(C)=O)n1 (stereo not shown) [Compound C245, 3-(4-(7-(4-(1-(4-((5-chloro-4-((2-(dimethylphosphoryl)phenyl)amino)pyrimidin-2-yl)amino)-3-methoxyphenyl)piperidin-4-yl)piperazin-1-yl)heptyl)-1-oxoisoindolin-2-yl)piperidine-2,6-dione] | 1 to 100 nM |  |
| COc1cc(N2CCC(N3CCN(CCCC#Cc4cc(C#N)cc5c4CN(C4CCC(=O)NC4=O)C5=O)CC3)CC2)ccc1Nc1ncc(Cl)c(Nc2ccccc2P(C)(C)=O)n1 (stereo not shown) [Compound C258, 7-(5-(4-(1-(4-((5-chloro-4-((2-(dimethylphosphoryl)phenyl)amino)pyrimidin-2-yl)amino)-3-methoxyphenyl)piperidin-4-yl)piperazin-1-yl)pent-1-yn-1-yl)-2-(2,6-dioxopiperidin-3-yl)-3-oxoisoindoline-5-carbonitrile] | 1 to 100 nM |  |
| COc1cc(N2CCC(N3CCN(CCCCC#Cc4cc(C#N)cc5c4CN(C4CCC(=O)NC4=O)C5=O)CC3)CC2)ccc1Nc1ncc(Cl)c(Nc2ccccc2P(C)(C)=O)n1 (stereo not shown) [Compound C259, 7-(6-(4-(1-(4-((5-chloro-4-((2-(dimethylphosphoryl)phenyl)amino)pyrimidin-2-yl)amino)-3-methoxyphenyl)piperidin-4-yl)piperazin-1-yl)hex-1-yn-1-yl)-2-(2,6-dioxopiperidin-3-yl)-3-oxoisoindoline-5-carbonitrile] | 1 to 100 nM |  |
| COc1cc(N2CCC(N3CCN(CCCCCC#Cc4cc(C(F)(F)F)cc5c4CN(C4CCC(=O)NC4=O)C5=O)CC3)CC2)ccc1Nc1ncc(Cl)c(Nc2ccccc2P(C)(C)=O)n1 (stereo not shown) [Compound C267, 3-(4-(7-(4-(1-(4-((5-chloro-4-((2-(dimethylphosphoryl)phenyl)amino)pyrimidin-2-yl)amino)-3-methoxyphenyl)piperidin-4-yl)piperazin-1-yl)hept-1-yn-1-yl)-1-oxo-6-(trifluoromethyl)isoindolin-2-yl)piperidine-2,6-dione] | 1 to 100 nM |  |
